{"source": "patent US20150238394A1", "about": "“Triggerable Compositions For Two-Stage, Controlled Release of Proactive Chemistry Using Aldehydes” (Kimberly-Clark Worldwide, Inc., priority 2014, published 2015)"}
{"experiment": "Volatility and smell of non-salt acetals, neat and embedded in polymer films brushed on polyethylene film and air-dried", "format": "physicochemical", "details": "embedded in PVP/VA, Eudragit E-100 and Eudragit S-100, brushed on polyethylene films, air-dried", "description": "1. Acetal of citronellal with ethanol and acetal of vanillin with ethanol were custom-synthesized. Their structures are shown below. […] The acetals were embedded in PVP/VA, Eudragit E-100, and Eudragit S-100 by simply dissolving the acetals in the solutions of those polymers. The solutions were then brushed on polyethylene films and air-dried. The parent aldehydes were also embedded in the same ratio in those polymers. Strong smells of both parent aldehydes and acetals could be nasally detected after drying. Those non-salt based acetals cannot effectively reduce the volatility of aldehyde-based fragrances and are not good pro-actives for stabilizing those fragrances."}
{"compound": "CCOC(CC(C)CCC=C(C)C)OCC", "note": "(stereo not shown) [Acetal of citronellal with ethanol]", "smell nasally detected after drying": "Strong smells"}
{"compound": "COc1cc(C=O)ccc1O", "note": "[vanillin]", "smell nasally detected after drying": "Strong smells"}
{"compound": "CC(C)=CCCC(C)CC=O", "note": "(stereo not shown) [citronellal]", "smell nasally detected after drying": "Strong smells"}
{"compound": "CCOC(OCC)c1ccc(O)c(OC)c1", "note": "[acetal of vanillin with ethanol]", "smell nasally detected after drying": "Strong smells"}
